Reference: patent US20170296521A1, “PHARMACEUTICAL COMPOSITION FOR SUPPRESSION OF THROMBOEMBOLISM AFTER STENT PLACEMENT” (priority 2014, published 2017)
Counter-ions that a name gives are not always drawn.

System: thrombus formation on stents in arteriovenous shunts
Experiment: rat stent thrombosis model (AV shunt with stents), amount of protein in thrombus
Type: in vivo
Settings: for dose responsiveness of the antithrombotic effect: Example 1, Spearman's correlation coefficient test, P<0.001; for suppression of thrombus formation (rate of inhibition of amount of protein in thrombus): Example 1, FIG. 1A
Method: Each rat was anesthetized with thiopental sodium (100 mg/mL/kg, i.p.) and placed on a warming mat. 18 minutes after the start of the anesthesia, polyethylene tubes (approximately 34 cm) containing four stents were inserted into the right and left carotid arteries and jugular veins to produce arteriovenous shunts (hereinafter, referred to as “AV shunts”). Blood flow was started in the shunts. 30 minutes after the start of the blood flow, the stents with thrombus attached thereto were taken out, and the amount of protein in the thrombus was measured.
A 0.5% MC solution (10 mL/kg or 15 mL/kg) was orally administered to a control group. […] The collected thrombus-attached stents were stored at −20° C. until protein quantification. […] Then, the anti-FXa activity in the plasma was measured.
Aspirin (5 mg/15 ml/kg) or clopidogrel (3 mg/10 ml/kg) was orally administered to each rat fasted overnight. […] A 0.5% MC solution (10 mL/kg or 15 mL/kg) was orally administered to a control group.
Amount of protein in thrombus: The thrombus-attached stents were placed in 0.9 mL of a 0.1 N NaOH solution containing 2% Na2CO3 and boiled for approximately 30 minutes to solubilize protein.

CC(=O)Oc1ccccc1C(=O)O [aspirin]
rate of suppression of thrombus formation (Example 1, FIG. 2A, 5 mg/kg orally two hours before AV shunting): 40%
rate of suppression of thrombus formation (Example 1, FIG. 2A, 10 mg/kg orally two hours before AV shunting): 47%
significance of the suppression of thrombus formation vs control (Example 1, FIG. 2A, 5 and 10 mg/kg orally, Dunnett's test): no significant effect
suppression of thrombus formation (Example 1, FIG. 2B, 10 mg/kg orally two hours before AV shunting): 63%
suppression of thrombus formation (Example 1, FIG. 2B, 25 mg/kg orally two hours before AV shunting): 64%
suppression of thrombus formation (Example 1, FIG. 2B, 50 mg/kg orally two hours before AV shunting): 70%
suppression of thrombus formation (Example 1, FIG. 2B, 100 mg/kg orally two hours before AV shunting): 83%
dose responsiveness of the antithrombotic effect: dose-dependent
rate of suppression of thrombus formation (Example 2, FIG. 5A, aspirin 5 mg/kg orally alone): 42%

COC(=O)[C@H](c1ccccc1Cl)N1CCc2sccc2C1 [clopidogrel, clopidogrel sulfate]
suppression of thrombus formation (Example 1, FIG. 3, 1 mg/kg orally two hours before AV shunting): 40%
suppression of thrombus formation (Example 1, FIG. 3, 3 mg/kg orally two hours before AV shunting): 47%
suppression of thrombus formation (Example 1, FIG. 3, 10 mg/kg orally two hours before AV shunting): 84%
suppression of thrombus formation (Example 1, FIG. 3, 30 mg/kg orally two hours before AV shunting): 94%
dose responsiveness of the antithrombotic effect: dose-dependent
rate of suppression of thrombus formation (Example 2, FIG. 6A, clopidogrel 3 mg/kg orally alone): 21%

CN1CCc2nc(C(=O)N[C@@H]3C[C@@H](C(=O)N(C)C)CC[C@@H]3NC(=O)C(=O)Nc3ccc(Cl)cn3)sc2C1.Cc1ccc(S(=O)(=O)O)cc1 [edoxaban, N-(5-chloropyridin-2-yl)-N′-[(1S,2R,4S)-4-(dimethylcarbamoyl)-2-(5-methyl-4,5,6,7-tetrahydro[1,3]thiazolo[5,4-c]pyridine-2-carboxamido)cyclohexyl]oxamide]
suppression of thrombus formation (rate of inhibition of amount of protein in thrombus) (0.3 mg/kg orally 30 minutes before AV shunting): 37%
suppression of thrombus formation (rate of inhibition of amount of protein in thrombus) (1 mg/kg orally 30 minutes before AV shunting): 70%
suppression of thrombus formation (rate of inhibition of amount of protein in thrombus) (3 mg/kg orally 30 minutes before AV shunting): 86%
dose responsiveness of the antithrombotic effect: dose-dependent
rate of suppression of thrombus formation (Example 2, FIG. 5A, edoxaban 0.5 mg/kg orally alone): 42%
rate of suppression of thrombus formation (Example 2, FIG. 6A, edoxaban 0.5 mg/kg orally alone): 25%

ticagrelor sulfate
suppression of thrombus formation (Example 1, FIG. 4, 0.3 mg/kg orally two hours before AV shunting): 67%
suppression of thrombus formation (Example 1, FIG. 4, 1 mg/kg orally two hours before AV shunting): 74%
suppression of thrombus formation (Example 1, FIG. 4, 3 mg/kg orally two hours before AV shunting): 89%
dose responsiveness of the antithrombotic effect: dose-dependent
